Source: patent US12433900B2, “Intravitreal corticosteroid extended release implant and methods of use” (Eyedea Bio, LLC, priority 2021, dated 2025)

Assay: Calculated Octanol Solubility Index (OSI) and Topological Polar Surface Area (TPSA) of the API
Conditions: calculated using the log P and maximal aqueous solubility
From the text: The interactions between API and complexation agent and/or dispersal medium can be predicted based on the Octanol Solubility Index (OSI) and Topological Polar Surface Area (TPSA) of the API. TPSA is a calculated measure of a molecule's polarity based on the number of polar atoms contained in the molecule. OSI is a measure of compound lipophilicity and can be calculated using the log P and maximal aqueous solubility of the compound by the formula:

With `C[C@@H]1C[C@H]2[C@@H]3CCC4=CC(=O)C=C[C@]4(C)[C@@]3(F)[C@@H](O)C[C@]2(C)[C@@]1(O)C(=O)CO` [dexamethasone free base, 9α-fluoro-11β,17α,21-trihydroxy-16α-methylpregna-1,4-diene-3,20-dione] the “OSI (Octanol Solubility Index)” value was 3.85.

In the case of `C[C@@H]1C[C@H]2[C@@H]3CCC4=CC(=O)C=C[C@]4(C)[C@@]3(F)[C@@H](O)C[C@]2(C)[C@@]1(O)C(=O)COP(=O)(O)O` [dexamethasone phosphate], the “OSI (Octanol Solubility Index)” value is reported as 3.71.

For `CC1(C)O[C@@H]2C[C@H]3[C@@H]4C[C@H](F)C5=CC(=O)C=C[C@]5(C)[C@@]4(F)[C@@H](O)C[C@]3(C)[C@]2(C(=O)CO)O1` [fluocinolone acetonide, 6α,9α-difluoro-11β,16α,17α,21-tetrahydroxypregna-1,4-diene-3,20-dione cyclic 16α,17α-acetal with acetone], the “OSI (Octanol Solubility Index)” value was 3.48.
